In ChEMBL document CHEMBL4507292 (2021):

Assays:
[1] = biological target: Tyrosine-protein kinase Fyn (Homo sapiens) (UniProt P06241); details: Compound concentration 1000.0 nM
[2] = biological target: RAC-alpha serine/threonine-protein kinase (Homo sapiens) (UniProt P31749); details: Compound concentration 1000.0 nM
[3] = test system: Mast/stem cell growth factor receptor Kit (Homo sapiens), P10721 [A829P]; details: Compound concentration 1000.0 nM
[4] = biological target: RAC-gamma serine/threonine-protein kinase (Homo sapiens) (UniProt Q9Y243); details: Compound concentration 1000.0 nM
[5] = test system: ALK tyrosine kinase receptor (Homo sapiens), Q9UM73 [C1156Y]; details: Compound concentration 1000.0 nM
[6] = biological target: Serine/threonine-protein kinase SIK2 (Homo sapiens) (UniProt Q9H0K1); details: Compound concentration 1000.0 nM
[7] = biological target: Phosphatidylinositol 4,5-bisphosphate 3-kinase catalytic subunit delta isoform (Homo sapiens) (UniProt O00329); details: Compound concentration 1000.0 nM
[8] = biological target: Non-receptor tyrosine-protein kinase TYK2 (Homo sapiens) (UniProt P29597); details: Compound concentration 1000.0 nM
[9] = test system: eIF-2-alpha kinase GCN2 (Homo sapiens), Q9P2K8 [S808G]; details: Compound concentration 1000.0 nM
[10] = biological target: Myotonin-protein kinase (Homo sapiens) (UniProt Q09013); details: Compound concentration 1000.0 nM
[11] = biological target: Sodium-dependent noradrenaline transporter (Homo sapiens, UniProt P23975); details: Compound concentration 10.0 uM
[12] = biological target: Mitogen-activated protein kinase kinase kinase 7 (Homo sapiens) (UniProt O43318); details: Compound concentration 1000.0 nM
[13] = biological target: Ephrin type-A receptor 6 (Homo sapiens) (UniProt Q9UF33); details: Compound concentration 1000.0 nM
Sequence of Ephrin type-A receptor 6 (Homo sapiens) (Q9UF33 whole entry): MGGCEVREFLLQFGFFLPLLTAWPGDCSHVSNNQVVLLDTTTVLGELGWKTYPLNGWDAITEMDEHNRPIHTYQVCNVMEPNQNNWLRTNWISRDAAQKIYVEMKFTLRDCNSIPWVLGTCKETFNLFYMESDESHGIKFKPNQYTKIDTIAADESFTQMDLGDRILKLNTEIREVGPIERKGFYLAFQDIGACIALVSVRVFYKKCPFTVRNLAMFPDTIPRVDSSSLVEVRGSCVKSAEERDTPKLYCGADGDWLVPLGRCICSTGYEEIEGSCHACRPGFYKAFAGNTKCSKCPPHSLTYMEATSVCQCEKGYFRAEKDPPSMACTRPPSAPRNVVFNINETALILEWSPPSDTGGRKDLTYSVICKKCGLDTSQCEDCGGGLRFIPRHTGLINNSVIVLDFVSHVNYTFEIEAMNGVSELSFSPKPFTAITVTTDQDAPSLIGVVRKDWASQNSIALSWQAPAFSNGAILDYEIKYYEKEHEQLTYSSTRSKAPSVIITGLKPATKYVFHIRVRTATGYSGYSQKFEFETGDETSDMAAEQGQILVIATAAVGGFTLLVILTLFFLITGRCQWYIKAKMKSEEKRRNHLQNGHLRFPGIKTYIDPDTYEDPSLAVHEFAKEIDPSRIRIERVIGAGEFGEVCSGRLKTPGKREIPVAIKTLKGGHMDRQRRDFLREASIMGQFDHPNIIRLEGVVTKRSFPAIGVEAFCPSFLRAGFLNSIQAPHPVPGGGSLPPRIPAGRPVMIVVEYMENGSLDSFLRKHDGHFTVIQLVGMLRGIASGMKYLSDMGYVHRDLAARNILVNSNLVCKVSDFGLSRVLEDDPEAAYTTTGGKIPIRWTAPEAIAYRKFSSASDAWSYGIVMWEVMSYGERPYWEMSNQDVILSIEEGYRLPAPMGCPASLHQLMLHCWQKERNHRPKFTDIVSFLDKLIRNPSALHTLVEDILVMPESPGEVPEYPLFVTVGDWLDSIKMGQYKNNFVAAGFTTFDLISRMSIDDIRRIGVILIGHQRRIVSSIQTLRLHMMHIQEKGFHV

[14] = test system: Receptor-type tyrosine-protein kinase FLT3 (Homo sapiens), P36888 [D835Y]; details: Compound concentration 1000.0 nM
[15] = biological target: Ribosomal protein S6 kinase alpha-3 (Homo sapiens) (UniProt P51812); details: Compound concentration 1000.0 nM
[16] = biological target: Dual specificity protein kinase CLK2 (Homo sapiens) (UniProt P49760); details: Compound concentration 1000.0 nM
Sequence of Dual specificity protein kinase CLK2 (Homo sapiens) (P49760 whole entry, looked up): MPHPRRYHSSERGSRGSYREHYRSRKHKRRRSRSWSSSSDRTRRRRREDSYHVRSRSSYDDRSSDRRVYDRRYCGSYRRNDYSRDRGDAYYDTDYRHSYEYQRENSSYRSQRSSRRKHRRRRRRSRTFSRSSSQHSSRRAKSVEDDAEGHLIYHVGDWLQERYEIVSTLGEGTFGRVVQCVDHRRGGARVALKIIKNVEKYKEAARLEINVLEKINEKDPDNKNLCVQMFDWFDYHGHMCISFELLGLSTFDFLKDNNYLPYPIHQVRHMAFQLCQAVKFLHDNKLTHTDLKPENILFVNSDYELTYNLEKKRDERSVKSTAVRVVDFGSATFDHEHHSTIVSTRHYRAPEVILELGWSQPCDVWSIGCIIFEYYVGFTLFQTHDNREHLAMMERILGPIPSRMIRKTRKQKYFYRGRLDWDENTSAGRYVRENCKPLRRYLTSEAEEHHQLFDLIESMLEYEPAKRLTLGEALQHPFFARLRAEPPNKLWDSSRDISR

[17] = biological target: Death-associated protein kinase 2 (Homo sapiens) (UniProt Q9UIK4); details: Compound concentration 1000.0 nM
[18] = biological target: Mitogen-activated protein kinase 15 (Homo sapiens) (UniProt Q8TD08); details: Compound concentration 1000.0 nM
[19] = biological target: Serine/threonine-protein kinase PRP4 homolog (Homo sapiens) (UniProt Q13523); details: Compound concentration 1000.0 nM
[20] = biological target: 5-hydroxytryptamine receptor 1E (Homo sapiens) (UniProt P28566); details: Compound concentration 10.0 uM
[21] = biological target: Wee1-like protein kinase (Homo sapiens) (UniProt P30291); details: Compound concentration 1000.0 nM
[22] = biological target: Histamine H2 receptor (Homo sapiens) (UniProt P25021); details: Compound concentration 10.0 uM
[23] = biological target: Serine/threonine-protein kinase PAK 2 (Homo sapiens) (UniProt Q13177); details: Compound concentration 1000.0 nM
Sequence of Serine/threonine-protein kinase PAK 2 (Homo sapiens) (Q13177 whole entry): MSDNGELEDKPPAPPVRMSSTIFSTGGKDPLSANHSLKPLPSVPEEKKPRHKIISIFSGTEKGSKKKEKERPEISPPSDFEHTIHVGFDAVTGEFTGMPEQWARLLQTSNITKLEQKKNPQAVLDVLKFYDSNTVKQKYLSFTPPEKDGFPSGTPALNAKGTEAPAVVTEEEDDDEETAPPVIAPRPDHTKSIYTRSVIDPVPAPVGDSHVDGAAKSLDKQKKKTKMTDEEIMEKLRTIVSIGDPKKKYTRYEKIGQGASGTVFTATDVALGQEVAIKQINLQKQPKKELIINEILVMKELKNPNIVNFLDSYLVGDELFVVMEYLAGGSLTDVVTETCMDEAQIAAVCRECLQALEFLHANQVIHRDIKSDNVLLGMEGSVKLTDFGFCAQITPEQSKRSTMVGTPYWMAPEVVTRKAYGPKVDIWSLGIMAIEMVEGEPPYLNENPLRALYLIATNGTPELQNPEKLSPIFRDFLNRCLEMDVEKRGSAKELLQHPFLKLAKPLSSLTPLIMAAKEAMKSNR

[24] = biological target: Microtubule-associated serine/threonine-protein kinase 1 (Homo sapiens) (UniProt Q9Y2H9); details: Compound concentration 1000.0 nM
[25] = biological target: Serine/threonine-protein kinase N2 (Homo sapiens) (UniProt Q16513); details: Compound concentration 1000.0 nM
[26] = biological target: Sigma intracellular receptor 2 (Homo sapiens, UniProt Q5BJF2); test: GPCRScan assay: inhibition of Sigma 2; parameters: radioligand conc. used [nm] 5.0, parental cells HEKT
[27] = biological target: Cyclin-dependent kinase 19 (Homo sapiens) (UniProt Q9BWU1); details: Compound concentration 1000.0 nM
[28] = test system: Epidermal growth factor receptor (Homo sapiens), P00533 [UNDEFINED MUTATION]; details: Compound concentration 1000.0 nM
[29] = biological target: Tyrosine-protein kinase SYK (Homo sapiens) (UniProt P43405); details: Compound concentration 1000.0 nM
[30] = biological target: Serine/threonine-protein kinase MARK2 (Homo sapiens) (UniProt Q7KZI7); details: Compound concentration 1000.0 nM
[31] = test system: Receptor-type tyrosine-protein kinase FLT3 (Homo sapiens), P36888 [K663Q]; details: Compound concentration 1000.0 nM
[32] = biological target: Ribosomal protein S6 kinase alpha-1 (Homo sapiens) (UniProt Q15418); details: Compound concentration 1000.0 nM
Sequence of Ribosomal protein S6 kinase alpha-1 (Homo sapiens) (Q15418 whole entry): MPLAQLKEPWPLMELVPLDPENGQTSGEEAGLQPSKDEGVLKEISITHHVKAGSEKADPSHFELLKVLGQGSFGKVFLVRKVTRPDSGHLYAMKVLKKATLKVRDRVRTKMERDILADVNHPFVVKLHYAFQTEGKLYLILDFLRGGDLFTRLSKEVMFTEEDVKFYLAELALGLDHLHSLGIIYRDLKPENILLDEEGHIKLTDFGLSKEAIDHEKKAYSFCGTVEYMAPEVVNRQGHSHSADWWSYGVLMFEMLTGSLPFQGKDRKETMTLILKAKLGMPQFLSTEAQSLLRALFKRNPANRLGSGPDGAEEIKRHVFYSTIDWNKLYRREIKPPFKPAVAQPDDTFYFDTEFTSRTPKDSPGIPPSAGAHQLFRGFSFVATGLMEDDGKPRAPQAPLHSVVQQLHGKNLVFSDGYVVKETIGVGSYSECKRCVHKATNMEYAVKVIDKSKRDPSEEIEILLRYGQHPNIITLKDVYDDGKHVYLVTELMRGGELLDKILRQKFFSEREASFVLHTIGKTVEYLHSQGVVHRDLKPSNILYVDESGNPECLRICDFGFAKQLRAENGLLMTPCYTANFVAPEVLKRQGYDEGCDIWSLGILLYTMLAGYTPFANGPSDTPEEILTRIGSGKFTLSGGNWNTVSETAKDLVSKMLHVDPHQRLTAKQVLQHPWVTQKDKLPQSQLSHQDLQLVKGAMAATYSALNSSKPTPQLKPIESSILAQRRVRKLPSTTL

[33] = biological target: Activin receptor type-2B (Homo sapiens) (UniProt Q13705); details: Compound concentration 1000.0 nM
Sequence of Activin receptor type-2B (Homo sapiens) (Q13705 whole entry): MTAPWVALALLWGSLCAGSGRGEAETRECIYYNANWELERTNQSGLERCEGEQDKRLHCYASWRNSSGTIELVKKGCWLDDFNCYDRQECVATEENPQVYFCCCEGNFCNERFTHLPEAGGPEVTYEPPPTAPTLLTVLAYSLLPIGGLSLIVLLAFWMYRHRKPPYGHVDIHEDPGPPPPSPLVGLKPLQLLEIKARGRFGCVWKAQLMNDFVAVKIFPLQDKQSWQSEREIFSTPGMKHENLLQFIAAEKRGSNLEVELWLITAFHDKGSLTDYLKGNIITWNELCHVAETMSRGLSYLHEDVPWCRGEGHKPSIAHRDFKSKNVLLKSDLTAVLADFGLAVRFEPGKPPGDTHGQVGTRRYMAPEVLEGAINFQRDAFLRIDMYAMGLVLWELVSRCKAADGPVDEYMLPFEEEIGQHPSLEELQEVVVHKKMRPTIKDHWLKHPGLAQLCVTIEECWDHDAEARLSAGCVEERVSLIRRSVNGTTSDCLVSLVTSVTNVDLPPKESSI

[34] = biological target: Serine/threonine-protein kinase PAK 1 (Homo sapiens) (UniProt Q13153); details: Compound concentration 1000.0 nM
[35] = biological target: Serine/threonine-protein kinase Nek10 (Homo sapiens) (UniProt Q6ZWH5); details: Compound concentration 1000.0 nM
[36] = biological target: Bone morphogenetic protein receptor type-1A (Homo sapiens) (UniProt P36894); details: Compound concentration 1000.0 nM
[37] = biological target: Serine/threonine-protein kinase WNK2 (Homo sapiens) (UniProt Q9Y3S1); details: Compound concentration 1000.0 nM
[38] = biological target: Tyrosine-protein kinase receptor TYRO3 (Homo sapiens) (UniProt Q06418); details: Compound concentration 1000.0 nM
[39] = biological target: Serine/threonine-protein kinase TAO2 (Homo sapiens) (UniProt Q9UL54); details: Compound concentration 1000.0 nM
[40] = biological target: Serine/threonine-protein kinase TNNI3K (Homo sapiens) (UniProt Q59H18); details: Compound concentration 1000.0 nM
[41] = biological target: Serine/threonine-protein kinase SIK3 (Homo sapiens) (UniProt Q9Y2K2); details: Compound concentration 1000.0 nM
[42] = biological target: Ephrin type-B receptor 4 (Homo sapiens) (UniProt P54760); details: Compound concentration 1000.0 nM
[43] = biological target: cGMP-dependent protein kinase 1 (Homo sapiens) (UniProt Q13976); details: Compound concentration 1000.0 nM
Sequence of cGMP-dependent protein kinase 1 (Homo sapiens) (Q13976 whole entry): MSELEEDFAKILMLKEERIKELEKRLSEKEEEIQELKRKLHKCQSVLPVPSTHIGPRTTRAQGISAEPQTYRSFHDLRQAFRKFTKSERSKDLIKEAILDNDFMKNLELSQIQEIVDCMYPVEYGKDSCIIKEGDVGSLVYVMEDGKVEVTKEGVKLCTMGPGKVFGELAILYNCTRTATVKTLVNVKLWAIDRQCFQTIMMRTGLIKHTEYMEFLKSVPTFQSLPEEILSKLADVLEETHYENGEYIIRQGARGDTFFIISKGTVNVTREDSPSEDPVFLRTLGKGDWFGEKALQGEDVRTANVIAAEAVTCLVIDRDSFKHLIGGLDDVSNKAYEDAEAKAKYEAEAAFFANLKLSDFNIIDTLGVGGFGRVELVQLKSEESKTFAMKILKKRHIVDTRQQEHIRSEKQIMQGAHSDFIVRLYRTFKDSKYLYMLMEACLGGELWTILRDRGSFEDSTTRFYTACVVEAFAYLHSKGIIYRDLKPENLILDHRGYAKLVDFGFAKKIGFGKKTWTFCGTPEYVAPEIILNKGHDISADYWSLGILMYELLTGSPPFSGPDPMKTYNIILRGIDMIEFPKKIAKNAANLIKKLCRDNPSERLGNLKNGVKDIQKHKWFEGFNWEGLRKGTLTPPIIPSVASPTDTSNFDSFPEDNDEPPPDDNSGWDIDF

[44] = test system: Receptor-type tyrosine-protein kinase FLT3 (Homo sapiens), P36888 [UNDEFINED MUTATION]; details: Compound concentration 1000.0 nM
[45] = biological target: Serine/threonine-protein kinase PknB (Mycobacterium tuberculosis) (UniProt P9WI81); details: Compound concentration 1000.0 nM

Sequence of Mast/stem cell growth factor receptor Kit (Homo sapiens), P10721 [A829P] (P10721 whole entry A829P): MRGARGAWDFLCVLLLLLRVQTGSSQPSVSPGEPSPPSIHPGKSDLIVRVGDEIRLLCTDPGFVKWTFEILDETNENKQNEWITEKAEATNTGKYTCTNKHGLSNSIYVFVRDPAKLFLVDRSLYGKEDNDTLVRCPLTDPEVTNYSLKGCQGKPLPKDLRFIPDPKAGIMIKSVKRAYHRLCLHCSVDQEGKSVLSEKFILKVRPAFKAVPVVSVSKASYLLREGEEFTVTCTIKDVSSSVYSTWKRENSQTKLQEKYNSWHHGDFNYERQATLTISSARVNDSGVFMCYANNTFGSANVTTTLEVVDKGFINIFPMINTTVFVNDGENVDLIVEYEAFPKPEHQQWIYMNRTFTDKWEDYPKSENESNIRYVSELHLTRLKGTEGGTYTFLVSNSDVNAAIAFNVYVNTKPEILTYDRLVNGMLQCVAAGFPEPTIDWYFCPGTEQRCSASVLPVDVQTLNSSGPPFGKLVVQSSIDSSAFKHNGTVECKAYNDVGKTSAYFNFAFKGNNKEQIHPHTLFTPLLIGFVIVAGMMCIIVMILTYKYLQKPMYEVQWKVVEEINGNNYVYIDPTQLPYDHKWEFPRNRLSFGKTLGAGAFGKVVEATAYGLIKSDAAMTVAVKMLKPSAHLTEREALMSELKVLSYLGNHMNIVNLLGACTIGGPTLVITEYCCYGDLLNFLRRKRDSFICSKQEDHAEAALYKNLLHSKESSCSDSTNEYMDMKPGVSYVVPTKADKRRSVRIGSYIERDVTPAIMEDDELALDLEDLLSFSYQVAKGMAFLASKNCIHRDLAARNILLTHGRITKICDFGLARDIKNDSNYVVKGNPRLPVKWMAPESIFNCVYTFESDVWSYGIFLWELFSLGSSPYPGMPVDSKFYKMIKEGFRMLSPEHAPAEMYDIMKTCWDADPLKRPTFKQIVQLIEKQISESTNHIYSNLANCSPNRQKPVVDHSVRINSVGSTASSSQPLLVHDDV

## Cc1c(C(=O)O)cc(-c2ccc(C3CCNCC3)cc2)c2ccc(-c3ccc(C(F)(F)F)cc3)cc12 [PPTN-NC]
[1]
  residual activity: 100%
[2]
  residual activity: 100%
[3]
  residual activity: 98%
[4]
  residual activity: 100%
[5]
  residual activity: 100%
[6]
  residual activity: 100%
[7]
  residual activity: 100%
[8]
  residual activity: 100%
[9]
  residual activity: 100%
[10]
  residual activity: 86%
[11]
  inhibition: 11.2%
[12]
  residual activity: 100%
[13]
  residual activity: 100%
[14]
  residual activity: 100%
[15]
  residual activity: 80%
[16]
  residual activity: 100%
[17]
  residual activity: 100%
[18]
  residual activity: 100%
[19]
  residual activity: 100%
[20]
  inhibition: 3.48%
[21]
  residual activity: 80%
[22]
  inhibition: 9%
[23]
  residual activity: 100%
[24]
  residual activity: 100%
[25]
  residual activity: 100%
[26]
  Ki: 1700 nM
[27]
  residual activity: 100%
[28]
  residual activity: 100%
[29]
  residual activity: 100%
[30]
  residual activity: 100%
[31]
  residual activity: 100%
[32]
  residual activity: 100%
[33]
  residual activity: 88%
[34]
  residual activity: 100%
[35]
  residual activity: 100%
[36]
  residual activity: 100%
[37]
  residual activity: 100%
[38]
  residual activity: 100%
[39]
  residual activity: 100%
[40]
  residual activity: 100%
[41]
  residual activity: 100%
[42]
  residual activity: 100%
[43]
  residual activity: 97%
[44]
  residual activity: 81%
[45]
  residual activity: 100%

## O=C(O)c1cc(-c2ccc(C3CCNCC3)cc2)c2ccc(-c3ccc(C(F)(F)F)cc3)cc2c1 [PPTN]
[1]
  residual activity: 100%
[2]
  residual activity: 99%
[3]
  residual activity: 100%
[4]
  residual activity: 100%
[5]
  residual activity: 100%
[6]
  residual activity: 100%
[7]
  residual activity: 98%
[8]
  residual activity: 100%
[9]
  residual activity: 100%
[10]
  residual activity: 100%
[11]
  inhibition: 23.6%
[12]
  residual activity: 100%
[13]
  residual activity: 100%
[14]
  residual activity: 100%
[15]
  residual activity: 80%
[16]
  residual activity: 100%
[17]
  residual activity: 100%
[18]
  residual activity: 100%
[19]
  residual activity: 100%
[20]
  inhibition: 13.4%
[21]
  residual activity: 98%
[22]
  inhibition: 28%
[23]
  residual activity: 100%
[24]
  residual activity: 100%
[25]
  residual activity: 100%
[26]
  Ki: 1120 nM
[27]
  residual activity: 97%
[28]
  residual activity: 100%
[29]
  residual activity: 100%
[30]
  residual activity: 100%
[31]
  residual activity: 100%
[32]
  residual activity: 100%
[33]
  residual activity: 100%
[34]
  residual activity: 100%
[35]
  residual activity: 100%
[36]
  residual activity: 100%
[37]
  residual activity: 100%
[38]
  residual activity: 100%
[39]
  residual activity: 100%
[40]
  residual activity: 100%
[41]
  residual activity: 100%
[42]
  residual activity: 100%
[43]
  residual activity: 100%
[44]
  residual activity: 99%
[45]
  residual activity: 100%
